Assays:
pigweed = test: Test C postemergence; type: in vivo, Amaranthus retroflexus; settings: Amaranthus retroflexus, post-emergence
How it was run: (§1)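 Seeds are planted in blended loam soil and sand and treated preemergence, while seedlings in a peat moss/vermiculite medium receive postemergence sprays at 2 to 18 cm height. All plants stay in the greenhouse for 13 to 15 days before visual comparison with controls on a 0–100 scale.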

velvetleaf [1] = test: Test A preemergence; type: in vivo, Abutilon theophrasti; settings: Abutilon theophrasti, pre-emergence, 240 h, read-out: Velvetleaf plant response rating
How it was run: (§2)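 Injury scores run from 0, no effect, to 100, complete control, judged by eye against untreated plants roughly 10 days after treatment. Chemicals carried a surfactant in a non-phytotoxic solvent and went onto loam–sand soil preemergence or onto one- to two-leaf seedlings postemergence.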

wheat [2] = test: Test A preemergence; type: in vivo, Triticum aestivum; settings: Triticum aestivum, pre-emergence, 240 h, read-out: Wheat plant response rating
How it was run: as §2

kochia = test: Test C postemergence; type: in vivo, Kochia scoparia; settings: Bassia scoparia, post-emergence
Description: (§3) Seeds of plant species selected from blackgrass (Alopecurus myosuroides), Italian ryegrass (Lolium multiflorum), wheat, winter (winter wheat, Triticum aestivum), galium (catchweed bedstraw, Galium aparine), corn (Zea mays), large (Lg) crabgrass (Digitaria sanguinalis), giant foxtail (Setaria faberii), johnsongrass (Sorghum halepense), lambsquarters (Chenopodium album), morningglory (Ipomoea coccinea), yellow nutsedge (Cyperus esculentus), pigweed (Amaranthus retroflexus), ragweed (common ragweed, Ambrosia elatior), soybean (Glycine max), barnyardgrass (Echinochloa crus-galli), oilseed rape (Brassica napus), waterhemp (common waterhemp, Amaranthus rudis), kochia (Kochia scoparia), wild oat (Avena fatua), surinam grass (Brachiaria decumbens), foxtail, green (green foxtail, Setaria viridis), goosegrass (Eleusine indica), bromegrass, downy (downy bromegrass, Bromus tectorum), nightshade (eastern black nightshade, Solanum ptycanthum), cocklebur (common cocklebur, Xanthium strumarium), cupgrass, woolly (woolly cupgrass, Eriochloa villosa), bermudagrass (Cynodon dactylon), sunflower, (common oilseed sunflower, Helianthus annuus), Russian thistle (Salsola kali), and velvetleaf (Abutilon theophrasti) were planted into a blend of loam soil and sand and treated preemergence with test chemicals formulated in a non-phytotoxic solvent mixture which included a surfactant.
(§4) At the same time, plants selected from these crop and weed species and also barley, winter (winter barley, Hordeum vulgare), windgrass (Apera spica-venti), chickweed (common chickweed, Stellaria media), deadnettle (henbit deadnettle, Lamium amplexicaule), and canarygrass (littleseed canarygrass, Phalaris minor) were planted in pots containing Redi-Earth® planting medium (Scotts Company, 14111 Scottslawn Road, Marysville, Ohio 43041) comprising spaghnum peat moss, vermiculite, wetting agent and starter nutrients and treated with postemergence applications of test chemicals formulated in the same manner. Plants ranged in height from 2 to 18 cm (1- to 4-leaf stage) for postemergence treatments. Treated plants and controls were maintained in a greenhouse for 13 to 15 days, after which time all species were compared to controls and visually evaluated. Plant response ratings, summarized in Table C, are based on a scale of 0 to 100 where 0 is no effect and 100 is complete control. A dash (-) response means no test result.

velvetleaf [3] = test: Test C postemergence; type: in vivo, Abutilon theophrasti; settings: Abutilon theophrasti, post-emergence
Description: as §3, §4

soybean = test: Test C postemergence; type: in vivo, Glycine max; settings: Glycine max, post-emergence
How it was run: as §1

wheat [4] = test: Test A postemergence; type: in vivo, Triticum aestivum; settings: Triticum aestivum, post-emergence, 240 h
How it was run: as §2

Heteranthera limosa = test: Test B flooded paddy test; type: in vivo; settings: Heteranthera limosa, Flood, 250 g ai/ha; 0 to 100 scale where 0 is no effect and 100 is complete control; read-out: Plant response rating, Ducksalad
How it was run: (§5)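 Seedlings are raised to two leaves, flooded to a depth of 3 cm and dosed by adding the compound to the floodwater. Water level is kept constant, and plants are scored visually versus controls 13–15 days later (0 = no effect, 100 = complete control).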

rice = test: Test B flooded paddy test; type: in vivo, Oryza sativa; settings: Oryza sativa; Flood, 250 g ai/ha; 0 to 100 scale where 0 is no effect and 100 is complete control; read-out: Plant response rating, Rice
How it was run: as §5

large (Lg) crabgrass [5] = test: Test A preemergence; type: in vivo, Digitaria sanguinalis; settings: Digitaria sanguinalis, pre-emergence, 240 h, read-out: Crabgrass, Large plant response rating
How it was run: as §2

giant foxtail = test: Test A postemergence; type: in vivo, Setaria faberii; settings: Setaria faberi, post-emergence, 240 h
How it was run: as §2

lambsquarters = test: Test C postemergence; type: in vivo, Chenopodium album; settings: Chenopodium album, post-emergence
Description: as §3, §4

velvetleaf [6] = test: Test A postemergence; type: in vivo, Abutilon theophrasti; settings: Abutilon theophrasti, post-emergence, 240 h
How it was run: as §2

large (Lg) crabgrass [7] = test: Test A postemergence; type: in vivo, Digitaria sanguinalis; settings: Digitaria sanguinalis, post-emergence, 240 h
How it was run: as §2

morningglory = test: Test C postemergence; type: in vivo, Ipomoea coccinea; settings: Ipomoea, post-emergence
Description: as §3, §4

[8] = 125 g ai/ha, 0 to 100 scale where 0 is no effect and 100 is complete control
[9] = 500 g ai/ha, 0 to 100 scale, 0 no effect, 100 complete control, approx. 10 days

SMILES: Clc1cnn(-c2ccccc2Oc2ncc(Br)cn2)c1 [Compound 5, 5-bromo-2-[2-(4-chloro-1H-pyrazol-1-yl)phenoxy]pyrimidine]
- pest or weed control at 125 g/ha (pigweed; 125 g ai/ha, postemergence, read-out: Plant response rating (0 to 100), Pigweed): 100%
- pest or weed control at 250 g/ha (pigweed; 250 g ai/ha, postemergence, read-out: Plant response rating (0 to 100), Pigweed): 100%
- pest or weed control at 31 g/ha (pigweed; Postemergence, 31 g ai/ha, scale 0 to 100 (0 no effect, 100 complete control), 13 to 15 days, read-out: Plant response rating, Pigweed): 98%
- pest or weed control at 62 g/ha (pigweed; Postemergence, 62 g ai/ha, scale 0 to 100 (0 no effect, 100 complete control), read-out: Plant response rating, Pigweed): 98%
- pest or weed control at 125 g/ha (velvetleaf [1]; [8]): 90%
- pest or weed control at 500 g/ha (velvetleaf [1]; [9]): 100%
- plant injury at 125 g/ha (wheat [2]; [8]): 0%
- plant injury at 500 g/ha (wheat [2]; [9]): 20%
- pest or weed control at 125 g/ha (kochia; 125 g ai/ha, postemergence, read-out: Plant response rating (0 to 100), Kochia): 70%
- pest or weed control at 250 g/ha (kochia; 250 g ai/ha, postemergence, read-out: Plant response rating (0 to 100), Kochia): 100%
- pest or weed control at 31 g/ha (kochia; Postemergence, 31 g ai/ha, scale 0 to 100 (0 no effect, 100 complete control), 13 to 15 days, read-out: Plant response rating, Kochia): 20%
- pest or weed control at 62 g/ha (kochia; Postemergence, 62 g ai/ha, scale 0 to 100 (0 no effect, 100 complete control), read-out: Plant response rating, Kochia): 55%
- pest or weed control at 125 g/ha (velvetleaf [3]; 125 g ai/ha, postemergence, read-out: Plant response rating (0 to 100), Velvetleaf): 80%
- pest or weed control at 250 g/ha (velvetleaf [3]; 250 g ai/ha, postemergence, read-out: Plant response rating (0 to 100), Velvetleaf): 98%
- pest or weed control at 31 g/ha (velvetleaf [3]; Postemergence, 31 g ai/ha, scale 0 to 100 (0 no effect, 100 complete control), 13 to 15 days, read-out: Plant response rating, Velvetleaf): 45%
- pest or weed control at 62 g/ha (velvetleaf [3]; Postemergence, 62 g ai/ha, scale 0 to 100 (0 no effect, 100 complete control), read-out: Plant response rating, Velvetleaf): 55%
- Soybean plant response rating (crop injury, 0-100 scale) at 125 g/ha (soybean; 125 g ai/ha, postemergence, read-out: Plant response rating (0 to 100), Soybean): 95%
- Soybean plant response rating (crop injury, 0-100 scale) at 250 g/ha (soybean; 250 g ai/ha, postemergence): 95%
- Soybean plant response rating (crop injury, 0-100 scale) at 31 g/ha (soybean; Postemergence, 31 g ai/ha, scale 0 to 100 (0 no effect, 100 complete control), 13 to 15 days): 55%
- Soybean plant response rating (crop injury, 0-100 scale) at 62 g/ha (soybean; Postemergence, 62 g ai/ha, scale 0 to 100 (0 no effect, 100 complete control)): 90%
- plant injury at 125 g/ha (wheat [4]; 125 g ai/ha, 0 to 100 scale where 0 is no effect and 100 is complete control, read-out: Plant response rating, Wheat): 0%
- plant injury at 500 g/ha (wheat [4]; 500 g ai/ha, 0 to 100 scale, 0 no effect, 100 complete control, read-out: Plant response rating Wheat): 40%
- pest or weed control at 250 g/ha (Heteranthera limosa): 50%
- plant injury at 250 g/ha (rice): 10%
- pest or weed control at 125 g/ha (large (Lg) crabgrass [5]; [8]): 90%
- pest or weed control at 500 g/ha (large (Lg) crabgrass [5]; [9]): 90%
- pest or weed control at 125 g/ha (giant foxtail; 125 g ai/ha, 0 to 100 scale where 0 is no effect and 100 is complete control, read-out: Plant response rating, Foxtail, Giant): 40%
- pest or weed control at 500 g/ha (giant foxtail; 500 g ai/ha, 0 to 100 scale, 0 no effect, 100 complete control, read-out: Plant response rating Foxtail, Giant): 100%
- pest or weed control at 125 g/ha (lambsquarters; 125 g ai/ha, postemergence, read-out: Plant response rating (0 to 100), Lambsquarters): 98%
- pest or weed control at 250 g/ha (lambsquarters; 250 g ai/ha, postemergence, read-out: Plant response rating (0 to 100), Lambsquarters): 98%
- pest or weed control at 31 g/ha (lambsquarters; Postemergence, 31 g ai/ha, scale 0 to 100 (0 no effect, 100 complete control), 13 to 15 days, read-out: Plant response rating, Lambsquarters): 80%
- pest or weed control at 62 g/ha (lambsquarters; Postemergence, 62 g ai/ha, scale 0 to 100 (0 no effect, 100 complete control), read-out: Plant response rating, Lambsquarters): 95%
- pest or weed control at 125 g/ha (velvetleaf [6]; 125 g ai/ha, 0 to 100 scale where 0 is no effect and 100 is complete control, read-out: Plant response rating, Velvetleaf): 100%
- pest or weed control at 500 g/ha (velvetleaf [6]; 500 g ai/ha, 0 to 100 scale, 0 no effect, 100 complete control, read-out: Plant response rating Velvetleaf): 100%
- pest or weed control at 125 g/ha (large (Lg) crabgrass [7]; 125 g ai/ha, 0 to 100 scale where 0 is no effect and 100 is complete control, read-out: Plant response rating, Crabgrass, Large): 30%
- pest or weed control at 500 g/ha (large (Lg) crabgrass [7]; 500 g ai/ha, 0 to 100 scale, 0 no effect, 100 complete control, read-out: Plant response rating Crabgrass, Large): 80%
- pest or weed control at 125 g/ha (morningglory; 125 g ai/ha, postemergence, read-out: Plant response rating (0 to 100), Morningglory): 60%
- pest or weed control at 250 g/ha (morningglory; 250 g ai/ha, postemergence, read-out: Plant response rating (0 to 100), Morningglory): 90%
- pest or weed control at 31 g/ha (morningglory; Postemergence, 31 g ai/ha, scale 0 to 100 (0 no effect, 100 complete control), 13 to 15 days, read-out: Plant response rating, Morningglory): 40%
- pest or weed control at 62 g/ha (morningglory; Postemergence, 62 g ai/ha, scale 0 to 100 (0 no effect, 100 complete control), read-out: Plant response rating, Morningglory): 60%

— US9695155B2, “Herbicidal substituted pyrimidinyloxy benzene compounds” (E. I. DU PONT DE NEMOURS AND COMPANY, priority 2013, dated 2017)
